Source: ChEMBL document CHEMBL1201862, “PubChem BioAssay data set” (2004)
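Dose response: 5 concentrations. Exposure: 48 h. Format: 96-well plates. Endpoint: linear interpolation; highest concentration if not reached. Abbreviation: GI50, concentration required for 50% inhibition of growth.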 Active and inactive are the calls of the source. No stated cut-off is given here; in the data, active = GI50 up to about 1.1 µM and inactive = higher.

How the values were obtained:
Test in all cases: NCI-60 cell line screen, 48 h
[1] = test system: SNB-75
[2] = test system: RXF 393
[3] = test system: HCT-15
[4] = test system: Malme-3M
[5] = test system: OVCAR-4
[6] = test system: OVCAR-5
[7] = test system: A498
[8] = test system: ACHN
[9] = test system: T47D
[10] = test system: UACC-257
[11] = test system: DU-145
[12] = test system: SNB-19
[13] = test system: SK-OV-3
[14] = test system: CCRF-CEM
[15] = test system: Hs-578T
[16] = test system: MOLT-4
[17] = test system: MCF7
[18] = test system: SN12C
[19] = test system: UACC-62
[20] = test system: LOX IMVI
[21] = test system: SF-295
[22] = test system: KM12
[23] = test system: A549
[24] = test system: SF-539
[25] = test system: 786-0
[26] = test system: HCC 2998
[27] = test system: SK-MEL-5
[28] = test system: HL-60
[29] = test system: SF-268
[30] = test system: MDA-MB-435
[31] = test system: BT-549
[32] = test system: MDA-MB-231
[33] = test system: HOP-62
[34] = test system: SK-MEL-28
[35] = test system: MDA-N
[36] = test system: NCI-H226
[37] = test system: TK-10
[38] = test system: OVCAR-3
[39] = test system: PC-3
[40] = test system: HCT-116
[41] = test system: HOP-92
[42] = test system: M14
[43] = test system: CAKI-1
[44] = test system: SK-MEL-2
[45] = test system: RPMI-8226
[46] = test system: SW-620
[47] = test system: OVCAR-8
[48] = test system: IGROV-1
[49] = test system: EKVX
[50] = test system: NCI-H23
[51] = test system: UO-31
[52] = test system: NCI/ADR-RES
[53] = test system: U-251
[54] = test system: COLO 205
[55] = test system: HT-29
[56] = test system: NCI-H522
[57] = test system: NCI-H460
[58] = test system: K562

Measured: GI50

Cc1cn(C2CC(n3cc(Cn4cc(F)c(=O)[nH]c4=O)nn3)C(CO)O2)c(=O)[nH]c1=O (centres undefined)
inactive: [1] > 100 µM | [2] > 100 µM | [4] > 100 µM | [5] > 100 µM | [6] > 100 µM | [7] > 100 µM | [8] > 100 µM | [9] > 100 µM | [10] > 100 µM | [11] > 100 µM | [12] > 100 µM | [13] > 100 µM | [14] > 100 µM | [15] > 100 µM | [16] > 100 µM | [17] > 100 µM | [18] > 100 µM | [19] > 100 µM | [20] > 100 µM | [21] > 100 µM | [22] > 100 µM | [23] > 100 µM | [24] > 100 µM | [25] > 100 µM | [26] > 100 µM | [27] > 100 µM | [28] 43.7 µM | [29] > 100 µM | [30] > 100 µM | [31] > 100 µM | [32] > 100 µM | [33] > 100 µM | [34] > 100 µM | [35] > 100 µM | [36] > 100 µM | [37] > 100 µM | [38] > 100 µM | [39] > 100 µM | [40] > 100 µM | [41] > 100 µM | [42] > 100 µM | [43] > 100 µM | [44] > 100 µM | [45] > 100 µM | [46] > 100 µM | [47] > 100 µM | [48] > 100 µM | [49] > 100 µM | [50] > 100 µM | [51] > 100 µM | [52] > 100 µM | [53] > 100 µM | [54] > 100 µM
> 100 µM: [3]

C(=N\OCCc1ccccc1)/c1cccnc1
inactive: [1] 71.6 µM | [2] > 100 µM | [4] > 100 µM | [55] > 100 µM | [5] > 100 µM | [6] > 100 µM | [8] > 100 µM | [9] > 100 µM | [10] > 100 µM | [56] > 100 µM | [11] > 100 µM | [12] > 100 µM | [13] > 100 µM | [14] > 100 µM | [15] > 100 µM | [16] 76.7 µM | [17] > 100 µM | [18] > 100 µM | [57] > 100 µM | [19] > 100 µM | [21] > 100 µM | [58] > 100 µM | [22] > 100 µM | [23] > 100 µM | [24] > 100 µM | [25] > 100 µM | [26] > 100 µM | [27] > 100 µM | [28] 5.02 µM | [29] > 100 µM | [30] > 100 µM | [31] > 100 µM | [32] > 100 µM | [33] > 100 µM | [34] > 100 µM | [35] > 100 µM | [36] > 100 µM | [37] > 100 µM | [38] > 100 µM | [39] > 100 µM | [40] > 100 µM | [41] > 100 µM | [42] > 100 µM | [44] > 100 µM | [45] > 100 µM | [46] > 100 µM | [47] > 100 µM | [48] > 100 µM | [49] > 100 µM | [50] > 100 µM | [51] > 100 µM | [52] > 100 µM | [53] > 100 µM | [54] > 100 µM
> 100 µM: [3]
